What was measured:
Type in all cases: in vivo, Wister rats
[1] = tested on: spinal cord injury, seriously injured model (II); experiment: Spinal cord evoked potential (SCEP), seriously injured model (II); conditions: HA4 6.0 μg/animal/day, vs physiological saline-administered group, p<0.05
Protocol: (§1) Wister rats (SPF, male) were used as animals, and each body was shaved from the neck to the hip using an electric hair clipper under pentobarbital (50 mg/kg weight) anesthesia and cleaned with 70% ethanol and Isodine (manufactured by Meiji Seika Kaisha, Ltd.). The dorsal skin was incised to expose thoracic vertebra from T5 to T10, and hemilaminectomy of the sixth thoracic vertebra (T6 thoracic vertebra) was performed to make a small incision in the dura mater, followed by regional anesthesia with xylocaine (manufactured by Astra Zeneca). […] A respirator was used only when spinal cord evoked potentials were measured. […]
(§2) 7 days after the spinal cord injury, the spinal cord evoked potentials were determined. […] Then, the spinal cord evoked potential (SCEP) was measured, and the “mean±SD” was calculated. The resultant potentials were evaluated using the amplitude of the first potential as an indicator. […]

spinal cord injury model = experiment: Evaluation on performance status (walking) after spinal cord injury; conditions: 7 days after the administration; PBS-administered group showed difficulty in walking
Protocol: (§3) Wister rats (SPF, male) were used as animals, and each body was shaved from the neck to the hip using an electric hair clipper under pentobarbital (50 mg/kg weight) anesthesia and cleaned with 70% ethanol and Isodine (manufactured by Meiji Seika Kaisha, Ltd.). The dorsal skin was incised to expose thoracic vertebra from T5 to T10, and hemilaminectomy of the sixth thoracic vertebra (T6 thoracic vertebra) was performed to make a small incision in the dura mater, followed by regional anesthesia with xylocaine (manufactured by Astra Zeneca). Subsequently, two models were prepared as follows: a spatula (the tip of which had been processed into 0.3 mm) was inserted to the T6 position from the dorsal until the tip reached the abdominal centrum and maintained for 10 minutes to injure the spinal cord (slightly injured model), while a tweezer (the tip of which had been processed into 0.3 mm) was inserted until the tip reached the abdominal centrum, and the portion was pinched from both sides for 10 seconds to injure the spinal cord (seriously injured model). A respirator was used only when spinal cord evoked potentials were measured. The respirator was inserted into the windpipe under 1.0 to 2.0% halothane anesthesia and stabilized with a muscle relaxant. […]

[2] = tested on: spinal cord injury, seriously injured model (I); experiment: Spinal cord evoked potential (SCEP), seriously injured model (I); conditions: for SCEP amplitude (first potential): 7 days after injury, vs PBS-administered group
Protocol: Wister rats (SPF, male) were used as animals, and each body was shaved from the neck to the hip using an electric hair clipper under pentobarbital (50 mg/kg weight) anesthesia and cleaned with 70% ethanol and Isodine (manufactured by Meiji Seika Kaisha, Ltd.). The dorsal skin was incised to expose thoracic vertebra from T5 to T10, and hemilaminectomy of the sixth thoracic vertebra (T6 thoracic vertebra) was performed to make a small incision in the dura mater, followed by regional anesthesia with xylocaine (manufactured by Astra Zeneca). Subsequently, two models were prepared as follows: a spatula (the tip of which had been processed into 0.3 mm) was inserted to the T6 position from the dorsal until the tip reached the abdominal centrum and maintained for 10 minutes to injure the spinal cord (slightly injured model), while a tweezer (the tip of which had been processed into 0.3 mm) was inserted until the tip reached the abdominal centrum, and the portion was pinched from both sides for 10 seconds to injure the spinal cord (seriously injured model). A respirator was used only when spinal cord evoked potentials were measured. The respirator was inserted into the windpipe under 1.0 to 2.0% halothane anesthesia and stabilized with a muscle relaxant.
After the injury, HA4 (6 μl) was immediately administered using a microsyringe (25 μl; manufactured by Ito Seisakusyo Co., Ltd.) into the dura mater. Thereafter, the tip (OD: 0.3 mm) of a tube that was filled with HA4 and connected with an osmotic pump (model 1002, manufactured by Alzet) was placed under the dura mater of the rostral in the injured portion, and HA4 was continuously administered for 7 days. […]
as §2

[3] = tested on: spinal cord injury, slightly injured model; experiment: Histopathologic evaluation of injured spinal cord (Kluver-Barrera staining), slightly injured model
Protocol: as §3, with “relaxant. After the injury, HA4 (6 μl) was immediately administered using a microsyringe (25 μl; manufactured by Ito Seisakusyo Co., Ltd.) into the dura mater. Thereafter, the tip (OD: 0.3 mm) of a tube that was filled with HA4 and connected with an osmotic pump (model 1002, manufactured by Alzet) was placed under the dura mater of the rostral in the injured portion, and HA4 was continuously administered for 7 days. Meanwhile, 5 minutes, 2 hours, 4 hours, and 6 hours after the injury, 30 mg/kg of methylprednisolone sodium succinate (MPSS, manufactured by Pharmacia) was administered into the tail vein as a positive control. For separating the injured portion from the surrounding tissues, a gelatin sponge (Gelform; manufactured by Pharmacia) was placed, and the rat was brought back to a feeding gauge after the wound had been sewn.” for “relaxant.”

[4] = tested on: spinal cord injury, severely injured model (II); experiment: Hind limb motor function test (BBB scale), severely injured model (II); conditions: HA4 6 μg/day, over 1 to 7 days after the spinal cord injury, P<0.0001 vs physiological saline-administered group
Protocol: Wister rats (SPF, male) were used as animals, and each body was shaved from the neck to the hip using an electric hair clipper under pentobarbital (50 mg/kg weight) anesthesia and cleaned with 70% ethanol and Isodine (manufactured by Meiji Seika Kaisha, Ltd.). The dorsal skin was incised to expose thoracic vertebra from T5 to T10, and hemilaminectomy of the sixth thoracic vertebra (T6 thoracic vertebra) was performed to make a small incision in the dura mater, followed by regional anesthesia with xylocaine (manufactured by Astra Zeneca). Subsequently, two models were prepared as follows: a spatula (the tip of which had been processed into 0.3 mm) was inserted to the T6 position from the dorsal until the tip reached the abdominal centrum and maintained for 10 minutes to injure the spinal cord (slightly injured model), while a tweezer (the tip of which had been processed into 0.3 mm) was inserted until the tip reached the abdominal centrum, and the portion was pinched from both sides for 10 seconds to injure the spinal cord (seriously injured model). A respirator was used only when spinal cord evoked potentials were measured. […] According to the method described by Basso et al., two test examiners individually evaluated blindly using the Basso-Beeattie-Bresnahan (BBB) scale, and the mean values were defined as the final score (FIG. 13).

[5] = tested on: spinal cord injury, slightly injured model; experiment: Spinal cord evoked potential (SCEP), slightly injured model; conditions: HA4 60 μg/animal/day, 7 days after injury
Protocol: as §1, §2

[6] = tested on: spinal cord injury, severely injured model (II); experiment: Balance beam and metal gauze crossing tests, severely injured model (II); conditions: 7 days after spinal cord injury, mean of four crossings, P<0.0001 vs physiological saline-administered group
Protocol: Wister rats (SPF, male) were used as animals, and each body was shaved from the neck to the hip using an electric hair clipper under pentobarbital (50 mg/kg weight) anesthesia and cleaned with 70% ethanol and Isodine (manufactured by Meiji Seika Kaisha, Ltd.). The dorsal skin was incised to expose thoracic vertebra from T5 to T10, and hemilaminectomy of the sixth thoracic vertebra (T6 thoracic vertebra) was performed to make a small incision in the dura mater, followed by regional anesthesia with xylocaine (manufactured by Astra Zeneca). Subsequently, two models were prepared as follows: a spatula (the tip of which had been processed into 0.3 mm) was inserted to the T6 position from the dorsal until the tip reached the abdominal centrum and maintained for 10 minutes to injure the spinal cord (slightly injured model), while a tweezer (the tip of which had been processed into 0.3 mm) was inserted until the tip reached the abdominal centrum, and the portion was pinched from both sides for 10 seconds to injure the spinal cord (seriously injured model). A respirator was used only when spinal cord evoked potentials were measured. […] Then, the numbers of slips in the hind limb were recorded, and evaluated by the mean value (FIG. 12). As for the sham surgery group prepared by making a small incision in the dura mater (Sham), the number of slips in the hind limb was also determined.

In the case of `CC(=O)N[C@H]1[C@H](O[C@H]2[C@H](O)[C@@H](O)[C@H](O[C@H]3[C@H](O)[C@@H](CO)OC(O)[C@@H]3NC(C)=O)O[C@@H]2C(=O)O)O[C@H](CO)[C@@H](O)[C@@H]1O[C@@H]1O[C@H](C(=O)O)[C@@H](O)[C@H](O)[C@H]1O` (stereo partly shown) [HA4, GlcA-GlcNAc-GlcA-GlcNAc], the SCEP amplitude [1] is reported as “significantly recovered”, the “performance status (walking)” value (spinal cord injury model) is reported as “walking approximately similar to that of the normal rat was observed” and the “SCEP amplitude (first potential)” value ([2]; HA4 0.6 μg/animal/day, p<0.05) is reported as “decrease of the SCEP amplitude was significantly attenuated or the SCEP amplitude was recovered”. The “SCEP effect compared with MPSS” value ([2]; HA4 6 μg/animal/day vs MPSS 30 mg/kg x 4 times, tail vein) was “stronger effect than that of MPSS”, the “SCEP amplitude (first potential)” value ([2]; HA4 6 μg/animal/day, p<0.001, same level as the normal level) was “decrease of the SCEP amplitude was significantly attenuated or the SCEP amplitude was recovered” and the “number of axons crossing from white matter to gray matter” value ([3]; 5 mm range in the rostral/caudal direction in the injured site, vs physiological saline-administered group) was “significantly larger”. For the same compound, the “tissue injury, edema and myelin loss in white matter” value ([3]; Kluver-Barrera staining, PBS group showed edema and myelin loss 1 cm or more from the injured site) was “the tissue injury was present only near the injured site, and edema and myelin loss were rarely observed in white matter”, the “injured area (damaged area)” value ([3]; coronal plane including the central canal, vs PBS-administered group) was “significantly smaller” and the “motor function in the hind limb (BBB scale)” value [4] was “significantly recovered”. For the same compound, the “SCEP amplitude level relative to normal (no injury-no treatment group)” value [5] was “the same as the normal level”, the “SCEP amplitude (first potential)” value ([5]; intradural, continuous 7 days, vs PBS-administered group, p<0.05) was “decrease of SCEP amplitude was significantly attenuated or the SCEP amplitude was recovered” and the “number of slips in the hind limb, balance beam crossing” value [6] was “significantly low”. The “number of slips in the hind limb, metal gauze crossing” value [6] was “significantly low”.

From patent US7511026B2, “Therapeutic agent for nerve damage” (Seikagaku Corporation, priority 2003, dated 2009)
